This note sets out measurements from patent US20250034170A1, “SMALL MOLECULE MODULATORS OF GLUCOCEREBROSIDASE ACTIVITY AND USES THEREOF” (Vanqua Bio, Inc., priority 2021, published 2025).

This assay deals with T1, GCase (Homo sapiens, UniProt P04062).
T1 construct: endogenous in cells; host or cells: HeLa cells
T1 sequence (P04062 40-536): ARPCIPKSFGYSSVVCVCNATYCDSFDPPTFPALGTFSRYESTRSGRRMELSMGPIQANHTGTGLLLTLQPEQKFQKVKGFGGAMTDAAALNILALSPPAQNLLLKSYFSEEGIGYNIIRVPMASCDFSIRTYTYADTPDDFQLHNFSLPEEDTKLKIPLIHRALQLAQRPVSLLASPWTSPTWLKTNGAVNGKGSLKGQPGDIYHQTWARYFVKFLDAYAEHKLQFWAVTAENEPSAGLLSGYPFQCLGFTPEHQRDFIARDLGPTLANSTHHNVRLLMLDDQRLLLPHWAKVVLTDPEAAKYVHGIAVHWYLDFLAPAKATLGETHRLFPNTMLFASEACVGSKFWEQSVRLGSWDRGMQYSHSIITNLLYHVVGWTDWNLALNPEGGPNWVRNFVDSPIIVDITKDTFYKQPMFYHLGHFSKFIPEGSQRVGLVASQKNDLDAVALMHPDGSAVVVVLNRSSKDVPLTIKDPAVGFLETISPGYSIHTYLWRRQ
The assay can be described thus: activation of GCase in a live cell PFB assay in HELA cells. The settings on record: EC50 given as range classes. It counts as cell-based. The method, then: Exemplary compounds were evaluated for activation of GCase in a live cell PFB assay in HELA cells (essentially as described in Ysselstein et al., “LRRK2 kinase activity regulates lysosomal glucocerebrosidase in neurons derived from Parkinson's disease patients” Nature Communications (2019) 10:5570). […] EC50 ranges: A: <10 μM; B: >10-50 μM; C: >50-100 μM; D: >100 μM.
The EC50 is the concentration that produces a half-maximal response. A higher EC50 goes with a less potent agent. Molecule `FC(F)Cn1ncc2ncc(N3CC4(CCN(c5cncc(C(F)(F)F)c5)C4)C3)nc21` [Compound 184, 2-[1-(2,2-difluoroethyl)-1H-pyrazolo[3,4-b]pyrazin-6-yl]-6-[5-(trifluoromethyl)pyridin-3-yl]-2,6-diazaspiro[3.4]octane] came in with a half-maximal effective concentration (EC50) of 10 to 50 µM. On to `FC(F)Cn1ncc2ncc(N3CC4(CCN(c5cccc(C(F)(F)F)n5)C4)C3)nc21` [Compound 185, 2-[1-(2,2-difluoroethyl)-1H-pyrazolo[3,4-b]pyrazin-6-yl]-6-[6-(trifluoromethyl)pyridin-2-yl]-2,6-diazaspiro[3.4]octane], for which the 50% effective concentration (EC50) is over 100 µM. Consider `FC(F)Cn1ncc2ncc(N3CCC4(CN(c5ccc(C(F)(F)F)cn5)C4)C3)nc21` [Compound 186, 6-[1-(2,2-difluoroethyl)-1H-pyrazolo[3,4-b]pyrazin-6-yl]-2-[5-(trifluoromethyl)pyridin-2-yl]-2,6-diazaspiro[3.4]octane], for which the EC50 fell in the range of 10 to 50 µM. `FC(F)Cn1ncc2ncc(N3CCC4(CN(c5cc(C(F)(F)F)ccn5)C4)C3)nc21` [Compound 187, 6-[1-(2,2-difluoroethyl)-1H-pyrazolo[3,4-b]pyrazin-6-yl]-2-[4-(trifluoromethyl)pyridin-2-yl]-2,6-diazaspiro[3.4]octane] registered a concentration for a half-maximal effect (EC50) of 10 to 50 µM. The molecule `FC(F)Cn1ncc2ncc(N3CCC4(CCCN4c4ccnc(C(F)(F)F)c4)C3)nc21` (stereo not shown) [Compound 188, 7-[1-(2,2-difluoroethyl)-1H-pyrazolo[3,4-b]pyrazin-6-yl]-1-[2-(trifluoromethyl)pyridin-4-yl]-1,7-diazaspiro[4.4]nonane] yielded a concentration for a half-maximal effect (EC50) of over 100 µM. For `FC(F)Cn1ncc2ncc(NC3CCC4(C3)CN(c3ccc(C(F)(F)F)nc3)C4)nc21` (stereo not shown) [Compound 189, N-[1-(2,2-difluoroethyl)-1H-pyrazolo[3,4-b]pyrazin-6-yl]-2-[6-(trifluoromethyl)pyridin-3-yl]-2-azaspiro[3.4]octan-6-amine], the EC50 was under 10 µM. On to `FC(F)Cn1ncc2ncc(NC3CCC4(C3)CN(c3cc(C(F)(F)F)ccn3)C4)nc21` (stereo not shown) [Compound 190, N-[1-(2,2-difluoroethyl)-1H-pyrazolo[3,4-b]pyrazin-6-yl]-2-[4-(trifluoromethyl)pyridin-2-yl]-2-azaspiro[3.4]octan-6-amine], for which the EC50 was under 10 µM.
